Measurements from ChEMBL document CHEMBL1159108, “Synthesis and antimicrobial activity of 2-fluorophenyl-4,6-disubstituted [1,3,5]triazines” (2010).
In brackets after ≈: the same amount, converted by molar mass.

Columns and labels:
[1] = tested on: Candida albicans; experiment: Antifungal activity against Candida albicans ATCC 10231; type: functional
[2] = tested on: Staphylococcus epidermidis; experiment: Antibacterial activity against methicillin-sensitive Staphylococcus epidermidis ATCC 155-U; type: functional
[3] = tested on: Candida albicans; experiment: Antifungal activity against Candida albicans ATCC 10231
[4] = tested on: Bacillus cereus; experiment: Antibacterial activity against Bacillus cereus ATCC 13061; type: functional
[5] = tested on: Enterococcus faecium; experiment: Antibacterial activity against vancomycin-resistant Enterococcus faecium ATCC 49624; type: functional
[6] = tested on: Staphylococcus warneri; experiment: Antibacterial activity against coagulase negative-susceptible Staphylococcus warneri; type: functional
[7] = tested on: Staphylococcus aureus; experiment: Antibacterial activity against vancomycin-resistant Staphylococcus aureus; type: functional
[8] = tested on: Staphylococcus cohnii; experiment: Antibacterial activity against coagulase negative-susceptible Staphylococcus cohnii; type: functional
[9] = tested on: Enterococcus faecalis; experiment: Antibacterial activity against Enterococcus faecalis; type: functional
[10] = tested on: Streptococcus pneumoniae; experiment: Antibacterial activity against Streptococcus pneumoniae; type: functional
[11] = tested on: Staphylococcus aureus; experiment: Antibacterial activity against methicillin-resistant Staphylococcus aureus; type: functional
[12] = tested on: Cutibacterium acnes; experiment: Antibacterial activity against Propionibacterium acnes; type: functional
[13] = tested on: Streptococcus pneumoniae; experiment: Antibacterial activity against multidrug-resistant Streptococcus pneumoniae; type: functional

Structure (SMILES) | MIC [1] | MIC [2] | MIC [3] | MIC [4] | MIC [5] | MIC [6] | MIC [7] | MIC [8] | MIC [9] | MIC [10] | MIC [11] | MIC [12] | MIC [13]
NCCCCCNc1nc(Nc2cccc(F)c2)nc(-c2cncc(F)c2)n1 | > 100 µg/mL | 32 µg/mL (≈ 83 µM) | > 100 µg/mL | 32 µg/mL (≈ 83 µM) | 32 µg/mL (≈ 83 µM) |  |  |  |  |  |  |  | 
NCCCCCCNc1nc(Nc2cccc(F)c2)nc(-c2cccc(F)c2)n1 | 16 µg/mL (≈ 40.2 µM) | 2 µg/mL (≈ 5.02 µM) | 16 µg/mL (≈ 40.2 µM) | 16 µg/mL (≈ 40.2 µM) | 4 µg/mL (≈ 10 µM) |  |  |  |  |  |  |  | 
NCCCCCNc1nc(Nc2ccc(F)cc2)nc(-c2cccnc2)n1 | > 100 µg/mL | 16 µg/mL (≈ 43.5 µM) | > 100 µg/mL | > 100 µg/mL | > 100 µg/mL |  |  |  |  |  |  |  | 
NCCCCCNc1nc(Nc2cccc(F)c2)nc(-c2cc(F)cc(F)c2)n1 | 16 µg/mL (≈ 39.8 µM) | 4 µg/mL (≈ 9.94 µM) | 16 µg/mL (≈ 39.8 µM) | 16 µg/mL (≈ 39.8 µM) | 8 µg/mL (≈ 19.9 µM) |  |  |  |  |  |  |  | 
CC(C)(CN)CNc1nc(Nc2cccc(F)c2)nc(-c2cccc(F)c2)n1 | 4 µg/mL (≈ 10.4 µM) | 2 µg/mL (≈ 5.2 µM) |  | 8 µg/mL (≈ 20.8 µM) | 8 µg/mL (≈ 20.8 µM) |  |  |  |  |  |  |  | 
Fc1cccc(Nc2nc(NC3CCCNC3)nc(-c3cccc(F)c3)n2)c1 (centres undefined) | 8 µg/mL (≈ 20.9 µM) | 2 µg/mL (≈ 5.23 µM) | 8 µg/mL (≈ 20.9 µM) | 8 µg/mL (≈ 20.9 µM) | 4 µg/mL (≈ 10.5 µM) |  |  |  |  |  |  |  | 
CC1(C)CC(Nc2nc(Nc3cccc(F)c3)nc(-c3cccc(F)c3)n2)CC(C)(C)N1 | 32 µg/mL (≈ 73 µM) | 2 µg/mL (≈ 4.56 µM) |  | 4 µg/mL (≈ 9.12 µM) | 4 µg/mL (≈ 9.12 µM) |  |  |  |  |  |  |  | 
NCC1CCC(CNc2nc(Nc3cccc(F)c3)nc(-c3cccc(F)c3)n2)CC1 (centres undefined) | 64 µg/mL (≈ 151 µM) | 8 µg/mL (≈ 18.8 µM) |  | 8 µg/mL (≈ 18.8 µM) | 8 µg/mL (≈ 18.8 µM) |  |  |  |  |  |  |  | 
NCC1(CNc2nc(Nc3cccc(F)c3)nc(-c3cccc(F)c3)n2)CCCC1 | 8 µg/mL (≈ 19.5 µM) | 16 µg/mL (≈ 39 µM) |  | 32 µg/mL (≈ 78 µM) | 32 µg/mL (≈ 78 µM) |  |  |  |  |  |  |  | 
NCCCCCNc1nc(Nc2cccc(F)c2)nc(-c2cccc(O)c2)n1 | 32 µg/mL (≈ 83.7 µM) | 8 µg/mL (≈ 20.9 µM) |  | 8 µg/mL (≈ 20.9 µM) | 8 µg/mL (≈ 20.9 µM) |  |  |  |  |  |  |  | 
NCCCCCNc1nc(-c2cccc(F)c2)nc(-c2cccc(F)c2)n1 | 4 µg/mL (≈ 10.8 µM) | 2 µg/mL (≈ 5.41 µM) |  |  | 8 µg/mL (≈ 21.7 µM) |  |  |  |  |  |  |  | 
NCCCCCNc1nc(NCCc2ccc(O)cc2)nc(-c2cccc(F)c2)n1 | > 100 µg/mL | 8 µg/mL (≈ 19.5 µM) | > 100 µg/mL | 8 µg/mL (≈ 19.5 µM) | 16 µg/mL (≈ 39 µM) |  |  |  |  |  |  |  | 
NCCN(CCN)c1nc(NCCc2ccc(O)cc2)nc(-c2cccc(F)c2)n1 | > 100 µg/mL | 4 µg/mL (≈ 9.72 µM) | > 100 µg/mL | 8 µg/mL (≈ 19.4 µM) | 8 µg/mL (≈ 19.4 µM) |  |  |  |  |  |  |  | 
NCCCCCNc1nc(NCCc2ccc(O)cc2)nc(-c2ccc(F)cc2)n1 | > 100 µg/mL |  | > 100 µg/mL | 4 µg/mL (≈ 9.74 µM) |  |  |  |  |  |  |  |  | 
NCCCCCNc1nc(NCCc2ccc(O)cc2)nc(Nc2ccc(F)cc2)n1 | > 100 µg/mL | 64 µg/mL (≈ 150 µM) | > 100 µg/mL | 16 µg/mL (≈ 37.6 µM) | 128 µg/mL (≈ 301 µM) | 64 µg/mL (≈ 150 µM) | 64 µg/mL (≈ 150 µM) | 32 µg/mL (≈ 75.2 µM) | 128 µg/mL (≈ 301 µM) | 64 µg/mL (≈ 150 µM) | 128 µg/mL (≈ 301 µM) | 32 µg/mL (≈ 75.2 µM) | 64 µg/mL (≈ 150 µM)
NCCCCCNc1nc(Nc2ccc(F)cc2)nc(-c2cccc(F)c2)n1 | 4 µg/mL (≈ 10.4 µM) | 2 µg/mL (≈ 5.2 µM) |  | 4 µg/mL (≈ 10.4 µM) | 8 µg/mL (≈ 20.8 µM) |  |  |  |  |  |  |  | 
NCCCCCNc1nc(Nc2cccc(F)c2)nc(-c2ccc(F)cc2)n1 | 4 µg/mL (≈ 10.4 µM) | 2 µg/mL (≈ 5.2 µM) |  | 4 µg/mL (≈ 10.4 µM) | 8 µg/mL (≈ 20.8 µM) |  |  |  |  |  |  |  | 
NCCCCCNc1nc(Nc2cccc(F)c2)nc(-c2ccccc2F)n1 | 16 µg/mL (≈ 41.6 µM) | 4 µg/mL (≈ 10.4 µM) |  | 64 µg/mL (≈ 166 µM) | 8 µg/mL (≈ 20.8 µM) |  |  |  |  |  |  |  | 
NCCCCCNc1nc(Nc2cccc(C(F)(F)F)c2)nc(-c2cccc(F)c2)n1 | 16 µg/mL (≈ 36.8 µM) | 8 µg/mL (≈ 18.4 µM) |  | 16 µg/mL (≈ 36.8 µM) | 4 µg/mL (≈ 9.21 µM) |  |  |  |  |  |  |  | 
NCCN(CCN)c1nc(NCCc2ccc(O)cc2)nc(-c2ccc(F)cc2)n1 | 32 µg/mL (≈ 77.8 µM) | 8 µg/mL (≈ 19.4 µM) |  | 16 µg/mL (≈ 38.9 µM) | 16 µg/mL (≈ 38.9 µM) |  |  |  |  |  |  |  | 
NCCCCCCCNc1nc(Nc2cccc(F)c2)nc(-c2cccc(F)c2)n1 | 64 µg/mL (≈ 155 µM) | 8 µg/mL (≈ 19.4 µM) |  | 16 µg/mL (≈ 38.8 µM) | 16 µg/mL (≈ 38.8 µM) |  |  |  |  |  |  |  | 
NCCCCCNc1nc(Nc2cccc(F)c2)nc(-c2cccc(F)c2)n1 | 8 µg/mL (≈ 20.8 µM) | 8 µg/mL (≈ 20.8 µM) | 8 µg/mL (≈ 20.8 µM) | 8 µg/mL (≈ 20.8 µM) | 4 µg/mL (≈ 10.4 µM) | 4 µg/mL (≈ 10.4 µM) | 8 µg/mL (≈ 20.8 µM) | 2 µg/mL (≈ 5.2 µM) | 8 µg/mL (≈ 20.8 µM) | 8 µg/mL (≈ 20.8 µM) | 8 µg/mL (≈ 20.8 µM) | 16 µg/mL (≈ 41.6 µM) | 8 µg/mL (≈ 20.8 µM)
NCc1ccc(CNc2nc(Nc3cccc(F)c3)nc(-c3cccc(F)c3)n2)cc1 | 16 µg/mL (≈ 38.2 µM) | 4 µg/mL (≈ 9.56 µM) |  | 16 µg/mL (≈ 38.2 µM) | 8 µg/mL (≈ 19.1 µM) |  |  |  |  |  |  |  | 
NCCCCCNc1nc(Nc2cccc(F)c2)nc(-c2cccnc2)n1 | > 100 µg/mL | 8 µg/mL (≈ 21.8 µM) | > 100 µg/mL | > 100 µg/mL | 16 µg/mL (≈ 43.5 µM) |  |  |  |  |  |  |  | 
C[C@@H]1[C@H](O)[C@@H](C)/C=C/C=C/C=C/C=C/C=C/C=C/C=C/[C@H](O[C@@H]2O[C@H](C)[C@@H](O)[C@H](N)[C@@H]2O)C[C@@H]2O[C@](O)(C[C@@H](O)C[C@@H](O)[C@H](O)CC[C@@H](O)C[C@@H](O)CC(=O)O[C@H]1C)C[C@H](O)[C@H]2C(=O)O [AMPHOTERICIN B] | 1 µg/mL (≈ 1.08 µM) |  |  |  |  |  |  |  |  |  |  |  | 
O=C(O)c1cn(C2CC2)c2cc(N3CCNCC3)c(F)cc2c1=O [CIPROFLOXACIN] |  | > 16 µg/mL |  |  | > 16 µg/mL | > 16 µg/mL | > 16 µg/mL | 0.12 µg/mL (≈ 0.362 µM) | > 16 µg/mL | > 16 µg/mL | > 16 µg/mL | 0.5 µg/mL (≈ 1.51 µM) | 1 µg/mL (≈ 3.02 µM)
CN[C@@H]1[C@H](O[C@H]2[C@H](O[C@H]3[C@H](O)[C@@H](O)[C@H](N=C(N)N)[C@@H](O)[C@@H]3N=C(N)N)O[C@@H](C)[C@]2(O)C=O)O[C@@H](CO)[C@H](O)[C@H]1O.CN[C@@H]1[C@H](O[C@H]2[C@H](O[C@H]3[C@H](O)[C@@H](O)[C@H](N=C(N)N)[C@@H](O)[C@@H]3N=C(N)N)O[C@@H](C)[C@]2(O)C=O)O[C@@H](CO)[C@H](O)[C@H]1O.O=S(=O)(O)O.O=S(=O)(O)O.O=S(=O)(O)O [STREPTOMYCIN SULFATE] |  | > 16 µg/mL |  | 8 µg/mL | > 16 µg/mL |  |  |  |  |  |  |  | 
